We go through 22 compounds from patent publication US9340538B2, “Dihydropyrimidine compounds and their application in pharmaceuticals” (SUNSHINE LAKE PHARMA CO., LTD., priority 2013, dated 2016).

Where two headings read alike, the source gives them in different places.

The test system of the assay is HBV. Kind of assay: In-vitro anti-HBV activity in stable HBV-producing cell line (HepG2.2.15), HBV DNA in culture fluid by qPCR. The following applies: Hepatitis B virus, read-out: HBV (% Inh.) (500 nmol). In kind it is cell-based. How it is done:
In-Vitro Anti-HBV Activity of Compounds in Stable HBV-Producing Cell Line (HepG2.2.15)
HBV DNA contents in cell culture fluid were detected by the qPCR-based assay and percents of HBV inhibition by compounds (% Inh) were calculated. Specific procedures are as follows:
HepG2.2.15 cells were seeded into each well of 96-well plates, 40,000 cells per well. Cells were treated with cell culture medium containing compounds 24 hours after cell seeding. Each compound to detected percent inhibition was in duplicate and the final concentration of each compound was 500 nmol in each well. The compound-containing mediums were refreshed on day 4 post cell seeding. Culture media were collected from the HepG2.2.15 plates on day 7 post cell seeding followed by HBV DNA extraction.
HBV DNA extraction: using QIAamp 96 DNA Blood Kit (QIAGEN 51161).
PCR for quantification: PCR mix was prepared according to PCR system; PCR mix was dispensed to 384-well optical reaction plates (special for quantification); The standard diluted proportionally was added; The sample was added; The plates were sealed with optical adhesive film; PCR system was performed according to programs.
Percent of HBV inhibition of DNA replication by compound was calculated using the following equation: % Inh.=[1-HBV DNA quantity of sample/HBV DNA quantity of DMSO control]*100. II. Assay Results
A general note: In qPCR the cycle at which signal appears reflects the starting amount.

[1] abbreviates: 168 h, 500 nmol final concentration, HepG2.2.15 cells, HBV DNA in culture media on day 7 post seeding, vs DMSO control.

As to `CCOC(=O)C1=C(CN2CCO[C@H](COC(=O)C(N)C(C)C)C2)NC(c2nccs2)=NC1c1ccc(F)cc1Br` (stereo in doubt) [Example 126, Ethyl 6-(((S)-2-((((S)-2-amino-3-methylbutanoyl)oxy)methyl)morpholino)methyl)-4-(2-bromo-4-fluorophenyl)-2-(thiazol-2-yl)-1,4-dihydropyrimidine-5-carboxylate], under setting [1], the inhibition at 0.5 µM was 94.7%. Still for that read-out and setting: the figure for `CCOC(=O)C1=C(CN2CCOCC2C(=O)O)NC(c2nnc(C)s2)=NC1c1ccc(F)cc1Br` (stereo not shown) [Example 69, 4-((6-(2-bromo-4-fluorophenyl)-5-(ethoxycarbonyl)-2-(5-methyl-1,3,4-thiadiazol-2-yl)-3,6-dihydropyrimidin-4-yl)methyl)morpholine-3-carboxylic acid] is 36.5%. Turning to `CCOC(=O)C1=C(CN2CCOC(CCC(N)=O)C2)NC(c2nccs2)=NC1c1ccc(F)cc1Br` (stereo not shown) [Example 135, Ethyl 6-((2-(3-amino-3-oxopropyl)morpholino)methyl)-4-(2-bromo-4-fluorophenyl)-2-(thiazol-2-yl)-1,4-dihydropyrimidine-5-carboxylate], the inhibition at 0.5 µM under setting [1] turned out to be 93.3%.

As for `CCOC(=O)C1=C(CN2CCO[C@H](CO)C2)NC(c2nccs2)=NC1c1ccc(F)cc1Br` (stereo partly drawn) [Example 66, Ethyl 4-(2-bromo-4-fluorophenyl)-6-(((S)-2-(hydroxymethyl)morpholino)methyl)-2-(thiazol-2-yl)-1,4-dihydropyrimidine-5-carboxylate], for the setting “HepG2.2.15, 168 h”, the inhibition at 0.5 µM was found to be 88.8%. On the same count and under the same terms, with `CCOC(=O)C1=C(CN2CCOC(C(=O)O)C2)NC(c2nccs2)=NC1c1ccc(F)cc1Br` (stereo not shown) [Example 9, 4-((6-(2-bromo-4-fluorophenyl)-5-(ethoxycarbonyl)-2-(thiazol-2-yl)-3,6-dihydropyrimidin-4-yl)methyl)morpholine-2-carboxylic acid] the figure was 93.1%; with `CCOC(=O)C1=C(CN2CCOC[C@@H]2CO)NC(c2nccs2)=NC1c1ccc(Cl)cc1Cl` (stereo partly drawn) [Example 42, Ethyl 4-(2,4-dichlorophenyl)-6-(((S)-3-(hydroxymethyl)morpholino)methyl)-2-(thiazol-2-yl)-1,4-dihydropyrimidine-5-carboxylate], 91.9%. For `CCOC(=O)C1=C(CN2CCOC(C(=O)O)C2)NC(c2ncn(C)n2)=NC1c1ccc(F)cc1Br` (stereo not shown) [Example 83, 4-((6-(2-bromo-4-fluorophenyl)-5-(ethoxycarbonyl)-2-(1-methyl-1H-1,2,4-triazol-3-yl)-3,6-dihydropyrimidin-4-yl)methyl)morpholine-2-carboxylic acid], the inhibition at 0.5 µM under setting [1] is 36%. Still for that read-out and setting: the figure for `CCOC(=O)C1=C(CN2CCOCC2C(=O)NC(C)C)NC(c2nccs2)=NC1c1ccc(F)cc1Br` (stereo not shown) [Example 82, Ethyl 4-(2-bromo-4-fluorophenyl)-6-((3-(isopropylcarbamoyl)morpholino)methyl)-2-(thiazol-2-yl)-1,4-dihydropyrimidine-5-carboxylate] is 96%; for `CCOC(=O)C1=C(CN2CCOC(C(=O)O)C2)NC(c2nccs2)=NC1c1ccc(Cl)cc1Cl` (stereo not shown) [Example 11, 4-((6-(2,4-dichlorophenyl)-5-(ethoxycarbonyl)-2-(thiazol-2-yl)-3,6-dihydropyrimidin-4-yl)methyl)morpholine-2-carboxylic acid] it is 95.6%. In the case of `CCOC(=O)C1=C(CN2CCOC[C@H]2C(=O)N(C)OC)NC(c2nccs2)=NC1c1ccc(F)cc1Br` (stereo partly drawn) [Example 60, Ethyl 4-(2-bromo-4-fluorophenyl)-6-(((S)-3-(methoxy(methyl)carbamoyl)morpholino)methyl)-2-(thiazol-2-yl)-1,4-dihydropyrimidine-5-carboxylate], the inhibition at 0.5 µM under setting [1] was found to be 94%.

Regarding `CCOC(=O)C1=C(CN2CCO[C@H](C)[C@H]2C(=O)O)NC(c2nccs2)=NC1c1ccc(F)cc1Br` (stereo partly drawn) [Example 34, (2R,3S)-4-((6-(2-bromo-4-fluorophenyl)-5-(ethoxycarbonyl)-2-(thiazol-2-yl)-3,6-dihydropyrimidin-4-yl)methyl)-2-methylmorpholine-3-carboxylic acid], the inhibition at 0.5 µM (HepG2.2.15, 168 h) was determined as 94.3%.

On to `CCOC(=O)C1=C(CN2CCOCC2C(=O)O)NC(c2nccs2)=NC1c1ccc(F)cc1Cl` (stereo not shown) [Example 4, 4-((6-(2-chloro-4-fluorophenyl)-5-(ethoxycarbonyl)-2-(thiazol-2-yl)-3,6-dihydropyrimidin-4-yl)methyl)morpholine-3-carboxylic acid], for which the inhibition at 0.5 µM under setting [1] was determined as 90%. As to `CCOC(=O)C1=C(CN2CCOC[C@H]2C(=O)NO)NC(c2nccs2)=NC1c1ccc(F)cc1Br` (stereo partly drawn) [Example 52, Ethyl 4-(2-bromo-4-fluorophenyl)-6-(((S)-3-(hydroxycarbamoyl)morpholino)methyl)-2-(thiazol-2-yl)-1,4-dihydropyrimidine-5-carboxylate], the inhibition at 0.5 µM under setting [1] worked out at 89.5%. The same measure, in the same setting: with `CCOC(=O)C1=C(CN2CCOCC2C(=O)O)NC(c2nccs2)=NC1c1ccccc1[N+](=O)[O-]` (stereo not shown) [Example 2, 4-((5-(ethoxycarbonyl)-6-(2-nitrophenyl)-2-(thiazol-2-yl)-3,6-dihydropyrimidin-4-yl)methyl)morpholine-3-carboxylic acid] the figure was 31.3%; with `CCOC(=O)C1=C(CN2CCOCC2C(=O)O)NC(c2nncs2)=NC1c1ccc(F)cc1Br` (stereo not shown) [Example 71, 4-((6-(2-bromo-4-fluorophenyl)-5-(ethoxycarbonyl)-2-(1,3,4-thiadiazol-2-yl)-3,6-dihydropyrimidin-4-yl)methyl)morpholine-3-carboxylic acid], 43.4%. Same read-out and setting: the figure for `CCOC(=O)C1=C(CN2CCOCC2C(=O)O)NC(c2nccs2)=NC1c1ccccc1C(F)(F)F` (stereo not shown) [Example 1, 4-((5-(ethoxycarbonyl)-2-(thiazol-2-yl)-6-(2-(trifluoromethyl)phenyl)-3,6-dihydropyrimidin-4-yl)methyl)morpholine-3-carboxylic acid] is 75.8%; for `CCOC(=O)C1=C(CN2CCOC[C@@H]2CO)NC(c2nccs2)=NC1c1ccc(F)cc1Br` (stereo partly drawn) [Example 40, Ethyl 4-(2-bromo-4-fluorophenyl)-6-(((S)-3-(hydroxymethyl)morpholino)methyl)-2-(thiazol-2-yl)-1,4-dihydropyrimidine-5-carboxylate] it is 95%; for `COC(=O)C1=C(CN2CCOC(C(=O)O)C2)NC(c2nccs2)=NC1c1ccc(F)cc1Cl` (stereo not shown) [Example 13, 4-((6-(2-chloro-4-fluorophenyl)-5-(methoxycarbonyl)-2-(thiazol-2-yl)-3,6-dihydropyrimidin-4-yl)methyl)morpholine-2-carboxylic acid] it is 54.5%.

Take `CCOC(=O)C1=C(CN2CCOCC2C(N)=O)NC(c2nccs2)=NC1c1ccc(Cl)cc1Cl` (stereo not shown) [Example 27, Ethyl 6-((3-carbamoylmorpholino)methyl)-4-(2,4-dichlorophenyl)-2-(thiazol-2-yl)-1,4-dihydropyrimidine-5-carboxylate]: the inhibition at 0.5 µM under setting [1] is 91.9%. On the same count and under the same terms, the figure for `CCOC(=O)C1=C(CN2CCOCC2C(N)=O)NC(c2nccs2)=NC1c1ccc(F)cc1Br` (stereo not shown) [Example 25, Ethyl 4-(2-bromo-4-fluorophenyl)-6-((3-carbamoylmorpholino)methyl)-2-(thiazol-2-yl)-1,4-dihydropyrimidine-5-carboxylate] is 91.9%. The same measure, in the same setting: the figure for `COC(=O)C1=C(CN2CCOCC2C(=O)O)NC(c2nccs2)=NC1c1ccc(F)cc1Br` (stereo not shown) [Example 6, 4-((6-(2-bromo-4-fluorophenyl)-5-(methoxycarbonyl)-2-(thiazol-2-yl)-3,6-dihydropyrimidin-4-yl)methyl)morpholine-3-carboxylic acid] is 99.9%; for `COC(=O)C1=C(CN2CCOC(C(=O)O)C2)NC(c2nccs2)=NC1c1ccc(F)cc1Br` (stereo not shown) [Example 12, 4-((6-(2-bromo-4-fluorophenyl)-5-(methoxycarbonyl)-2-(thiazol-2-yl)-3,6-dihydropyrimidin-4-yl)methyl)morpholine-2-carboxylic acid] it is 53.8%.
